What was measured:
[1] = test system: P. gingivalis collagenase; test: Proteolytic assay: collagen DQ degradation by P. gingivalis culture supernatant; type: biochemical, Porphyromonas gingivalis; details: Example 6, FIGS. 35, 38, 41; over 5 hours
Experimental: To determine the effects of formulations tested on the proteinase activity of P. gingivalis, a 48-h culture was centrifuged at 10 000×g for 10 min. […] The fluorescence corresponding to collagen degradation was monitored using a Synergy 2 microplate reader, with the excitation and emission wavelengths set at 495 nm and 525 nm, respectively. Test compounds or the fluorescent substrate alone were used as controls. For the proteolytic assay, the following ratio was used: 40% P. gingivalis supernatant+40% test compounds+20% DQ collagen. […]
To determine the effects of the Dual Zinc plus Arginine aqueous solution and dentifrice on the proteinase activity of P. gingivalis, a 48-h culture was centrifuged at 10 000×g for 10 min. Assay mixtures containing equal volumes of P. gingivalis culture supernatant, the fluorescent substrate collagen DQ™ (100 μg/mL; Molecular Probes, Eugene, Oreg., USA), and the Dual Zinc […] The fluorescence corresponding to collagen degradation was monitored using a Synergy 2 microplate reader, with the excitation and emission wavelengths set at 495 nm and 525 nm, respectively. Test compounds or the fluorescent substrate alone were used as controls. Leupeptin (1 μM) was used as a positive inhibitory control.

[2] = test system: B11 gingival keratinocytes treated with TNF-α; test: TER with TNF-α challenge; type: cell-based, human; details: Example 5, FIGS. 24, 27, 29, 30
Experimental: (§1) Tight junction integrity was assessed by determining the trans-epithelial electrical resistance (TER). B11 gingival keratinocytes were seeded onto Costar™ Transwell™ clear polyester membrane inserts (6.5-mm diameter; 0.4-μm pore size; Corning Co., Cambridge, Mass., USA) at 3×10^5 cells per insert. The basolateral and apical compartments were filled with 0.6 mL and 0.1 mL of complete K-SFM, respectively. Following a 72-h incubation, the conditioned medium was replaced with antibiotic-free K-SFM, and the cells were incubated for a further 16 h. The TER values were measured using an Ohm/voltmeter (EVOM2; World Precision Instruments, Sarasota, Fla., USA) at 0, 4, 8, 24, 48, and 72 h. Resistance values were calculated in Ohms (Ω)/cm 2 by multiplying the resistance values by the filter surface area. Results were expressed as percentage of the basal control values measured at time 0 h (100% values) for each condition.
(§2) Assays exposed cells to either TNFα only or TNFα+test composition. TNFα is known to cause tissue damage. A stock solution of recombinant TNF-α is prepared in sterile distilled water at 100 μg/ml. Thereafter, dilutions are made in keratinocyte culture medium. First dilution is 1/1000 to obtain 100 ng/ml. TNF-α and the test compounds are added simultaneously.
Keratinocyte barrier integrity was determined by monitoring transepithelial electrical resistance (TER). Briefly, keratinocytes (3×10^5 cells per insert; 0.1 ml) were seeded in the apical compartment of Costar™ Transwell™ clear polyester membrane inserts (6.5 mm in diameter, 0.4 μm pore size; Corning Co., Cambridge, Mass., USA), while the basolateral compartment was filled with 0.6 ml of culture medium. After 72-h of incubation, the conditioned culture medium was replaced with fresh antibiotic-free K-SFM, and the cells were further incubated for 16 h prior treating the cells. Recombinant human TNF-α (100 ng/ml; AnaSpec, Fremont, USA) and the formulations (final dilutions of 1/500, 1/1000, and 1/2000 (v/v for the aqueous solution; w/v for the dentifrice) under investigation were added to the apical compartment. The TER values were monitored using an ohm/voltmeter (EVOM^2; World Precision Instruments, Sarasota, Fla., USA) after 0, 6, 24, and 48 h of incubation. The TER values in Ohms (Ω)/cm^2 were determined by multiplying the resistance values by the surface area of the membrane filter. Results are expressed as the percentage of the basal control value measured at time 0-h (100% value).

[3] = test system: B11 gingival keratinocytes treated with TNF-α; test: FITC-dextran paracellular transport with TNF-α challenge; type: cell-based, human; details: Example 5, FIGS. 25, 28, 31, 32; S1: the two higher percentages
Experimental: (§3) The ability of test composition samples to enhance epithelial barrier integrity was assessed by monitoring the paracellular transport of FITC-conjugated 4.4-kDa dextran (FD-4; Sigma-Aldrich Canada Ltd.) across the keratinocyte layer. Briefly, B11 cells were cultured on Transwell filters, and FD-4 ([…] in culture medium) was added in the apical compartment in the presence of the test composition under investigation. Fluorescence in the basolateral compartment was measured at 0, 4, 8, 24, and 48 h using a Synergy 2 microplate reader (BioTek Instrument, Winooski, Vt., USA).
as §2
Gingival keratinocytes were cultured in the apical chamber of Transwell™ inserts as described above. Immediately after adding fluorescein isothiocyanate-conjugated dextran of 4.4 kDa (FD-4; 1 mg/ml in culture medium) to the apical compartment, the formulations under investigation were added in presence of recombinant TNF-α (100 ng/ml). Fluorescence in the basolateral compartment was recorded after 0, 2, 6, 24, and 48 h of incubation using a Synergy 2 microplate reader (BioTek Instruments; Winooski, Vt., USA).

[4] = test system: B11 immortalized human gingival keratinocyte cell line; test: Transepithelial electrical resistance (TER) of gingival keratinocyte barrier; type: cell-based; details: no challenge; dilutions 1/500, 1/1000, 1/2000 or 0.025-0.2%; multiple time points; FIGS. 6, 9, 12
Experimental: as §1

[5] = test system: hemolytic activity of P. gingivalis; test: Hemolytic assay with sheep red blood cells; type: cell-based, Porphyromonas gingivalis; details: Example 6, FIGS. 37, 40, 43; red blood cells from sheep
Experimental: A hemolytic assay is performed as follows. Fresh sheep red blood cells (Nutri-Bact, Terrebonne, QC, Canada) were harvested from heparinized whole blood by centrifugation (600×g for 5 min), washed three times in phosphate-buffered saline (PBS; pH 7.0), and suspended in PBS to a concentration of 2% (v/v). Equal volumes (1 mL) of red blood cells, P. gingivalis cells (OD660=1.0 in PBS), and two-fold serial dilutions of the Test composition were mixed together. PBS replaced the bacteria in the negative control. Following an incubation at 37° C. for 4 h, the mixtures were incubated at 4° C. for 1 h and were then centrifuged (10 000×g for 5 min) prior to recording the absorbance of the supernatants at 540 nm (A540). 1 ml P. gingivalis+1 ml of red blood cells+1 ml of test compounds used in the hemolysis assay are incubated at 37° C. for to 4 h. All constituents are added at the same time. […]
Fresh sheep red blood cells (Nutri-B act, Terrebonne, QC, Canada) were harvested from heparinized whole blood by centrifugation (600×g for 5 min), washed three times in phosphate-buffered saline (PBS; pH 7.0), and suspended in PBS to a concentration of 2% (v/v). […] Following an incubation at 37° C. for 4 h, the mixtures were incubated at 4° C. for 1 h and were then centrifuged (10 000×g for 5 min) prior to recording the absorbance of the supernatants at 540 nm (A540).

[6] = test system: B11 gingival keratinocytes challenged with P. gingivalis; test: Paracellular permeability to FITC-dextran with P. gingivalis challenge; type: cell-based, human; details: P. gingivalis MOI=10^4; over 48 h; FIGS. 16, 19, 22
Experimental: as §3
Briefly, B11 cells were cultured on Transwell™ filters, and FD-4 (1 mg/mL in culture medium) was added to the apical compartment in the presence of the test compounds. The presence of FD-4 in the basolateral compartment was determined at 0, 2, 6, 24, and 48 h by measuring the fluorescence (RUF; excitation wavelength 495 nm; emission wavelength 525 nm) using a Synergy 2 microplate reader.

Structure (SMILES) | inhibition of P. gingivalis collagenase activity [1] | TER with TNFα challenge [2] | TNFα-induced paracellular permeability to FITC-dextran [3] | TER measured as a percent of the initial value [4] | inhibition of hemolytic activity of P. gingivalis [5] | paracellular permeability to FITC-dextran with P. gingivalis [6]
O=C([O-])CC(O)(CC(=O)[O-])C(=O)[O-].O=C([O-])CC(O)(CC(=O)[O-])C(=O)[O-].[Zn+2].[Zn+2].[Zn+2] [zinc citrate] | inhibits collagenase activity of P. gingivalis in a dose response manner | can prevent tissue from the TNFα induced TER decrease | protects oral tissue integrity from the deleterious effects caused by the presence of TNFα | increase in TER values with the increase in sample concentration | inhibited P. gingivalis hemolysis | decreased with the increase in concentration of zinc citrate
[O]=[Zn] [zinc oxide] | inhibits collagenase activity of P. gingivalis in a dose response manner | prevented tissue from the TNFα induced TER decrease | protects oral tissue integrity from the deleterious effects caused by the presence of TNFα | increase in TER values with the increase in sample concentration | inhibited P. gingivalis hemolysis | decreased with the increase in concentration of zinc oxide

From patent US20210308028A1, “Compositions and Methods for Maintaining and Protecting Tissue Integrity and Barrier Function” (Colgate-Palmolive Company, priority 2020, published 2021)
